A value given as a limit tells only on which side of the number the result lay.

For this assay, the target named is human PD-L1 / Human PD-1 (Homo sapiens (Human), UniProt Q9NZQ7). The assay can be described thus: Enzyme-Linked Immunosorbent Assay (ELISA), PD-1/PD-L1 binding. The conditions noted are these: plate-coated human PD-L1, biotinylated human PD-1. An outline of the steps:
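Plates were coated with human PD-L1 at […]. Biotinylated human PD-1 (0.3 μg/mL) was added with 1:5 serially diluted compound for 1 h at 37 °C. Bound PD-1 was detected with streptavidin-HRP (1 h) and TMB (20 min), with absorbance read at 450 nm.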
In general terms: In an ELISA, binding on a coated surface is turned into a signal by an enzyme label.

Sequence of human PD-L1 / Human PD-1 (Q9NZQ7 19-239): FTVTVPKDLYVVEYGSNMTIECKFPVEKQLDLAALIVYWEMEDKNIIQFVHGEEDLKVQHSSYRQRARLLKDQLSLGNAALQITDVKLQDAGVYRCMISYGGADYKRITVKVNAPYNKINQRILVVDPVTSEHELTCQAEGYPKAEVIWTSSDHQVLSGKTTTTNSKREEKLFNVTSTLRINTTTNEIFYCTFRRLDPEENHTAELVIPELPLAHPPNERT

As to `C[C@@](CO)(NCc1cc(Cl)c(O[C@H]2CCc3c(-c4cccc(OCCCN5CCC(O)CC5)c4Cl)cccc32)cc1OCc1cncc(C#N)c1)C(=O)O`, the IC50 – broadly, the concentration needed to halve the response being measured – was less than 5 nM. With `CCOc1cc(O[C@H]2CCc3c(-c4cccc(OCCCN5CC6(CC(O)C6)C5)c4C)cccc32)c(Cl)cc1CN[C@@H](CO)C(=O)O` the figure was less than 5 nM. Consider `N#Cc1cncc(COc2cc(O[C@H]3CCc4c(-c5cccc(OCCCN6CC7(CC(F)C7)C6)c5Cl)cccc43)c(Cl)cc2CN[C@H]2CCC[C@H]2O)c1`, for which the IC50 was less than 5 nM. With `CC1(C)CC(O)CCN1CCCOc1cccc(-c2cccc3c2CC[C@@H]3Oc2cc(OCc3cncc(C#N)c3)c(CN[C@@H]3CCCC[C@@H]3O)cc2Cl)c1Cl` (stereo partly shown) the figure was less than 5 nM; with `CCOc1cc(O[C@H]2CCc3c(-c4cccc(OCCCN5CCC[C@@H]5C(C)C)c4C)cccc32)c(Cl)cc1CNC[C@@H]1CCC(=O)N1`, less than 5 nM.

The molecule `CCOc1cc(O[C@H]2CCc3c(-c4cccc(OCCCN5[C@H](C)CC[C@H]5C)c4C)cccc32)c(Cl)cc1CN1CCC(O)CC1` yielded an IC50 of 5 to 500 nM. On to `Cc1c(OCCCN2CCC(F)CC2)cccc1-c1cccc2c1CC[C@@H]2Oc1cc(OCc2cncc(C#N)c2)c(CNCC2CCC(=O)N2)cc1Cl` (stereo partly shown), for which the IC50 was less than 5 nM. With `N#Cc1cncc(COc2cc(O[C@H]3CCc4c(-c5cccc(OCCCN6CCC(F)CC6)c5Cl)cccc43)c(Cl)cc2CN[C@@H]2CCC[C@H]2O)c1` the figure was less than 5 nM. `CC1(F)CCN(CCCOc2cccc(-c3cccc4c3CC[C@@H]4Oc3cc(OCc4cncc(C#N)c4)c(CNC[C@H]4CCC(=O)N4)cc3Cl)c2Cl)CC1` yielded an IC50 of 5 to 500 nM. In the case of `CCOc1cc(O[C@H]2CCc3c(-c4cccc(OCCCN5CCCC5(C)C)c4C)cccc32)c(Cl)cc1CN(C[C@@H]1CCC(=O)N1)C(C)C` it was 5 to 500 nM; in that of `CCOc1cc(O[C@H]2CCc3c(-c4cccc(OCCCN5CCC5(C)C)c4C)cccc32)c(Cl)cc1CNC[C@H]1CCC(=O)N1`, 5 to 500 nM; in that of `COC(=O)C1(O)CCN(CCCOc2cccc(-c3cccc4c3CC[C@@H]4Oc3cc(OCc4cncc(C#N)c4)c(CN[C@H](C(=O)O)[C@@H](C)O)cc3Cl)c2C)C1` (stereo partly shown), less than 5 nM. Molecule `N#Cc1cncc(COc2cc(O[C@H]3CCc4c(-c5cccc(OCCCN6CCC(F)CC6)c5Cl)cccc43)c(Cl)cc2CN2CC(C(=O)O)C2)c1` showed an IC50 of less than 5 nM. The molecule `CCOc1cc(O[C@H]2CCc3c(-c4cccc(OCCCN5CCCC5(C)C)c4C)cccc32)c(Cl)cc1CNC[C@@H]1CCC(=O)N1` [drawing 377] came in with an IC50 of 5 to 500 nM.

`Cc1c(OCCCN2CCC(F)CC2)cccc1-c1cccc2c1CC[C@@H]2Oc1cc(OCc2cncc(C#N)c2)c(CNCC2CCC(=O)N2C)cc1Cl` (stereo partly shown) gave a 50% inhibitory concentration (IC50) of 5 to 500 nM. With `Cc1c(OCCCN2CC[C@@H](F)C[C@@H]2C)cccc1-c1cccc2c1CC[C@@H]2Oc1cc(OCc2cc(C#N)cc(C#N)c2)c(CN[C@H]2CCC(=O)NC2)cc1Cl` the figure was 5 to 500 nM; with `CCOc1cc(O[C@H]2CCc3c(-c4cccc(OCCCN5CC[C@@H](O)C5)c4C)cccc32)c(Cl)cc1CN[C@@H](CO)C(=O)O`, less than 5 nM; with `N#Cc1cncc(COc2cc(O[C@H]3CCc4c(-c5cccc(OCCCN6CCC(F)CC6)c5Cl)cccc43)c(Cl)cc2CN[C@H]2CCC[C@H]2O)c1`, less than 5 nM. In the case of `CCOc1cc(O[C@@H]2c3cccc(-c4cccc(OCCCN5CCC(F)CC5)c4Cl)c3C[C@@H]2F)c(Cl)cc1CNC[C@H]1CCC(=O)N1` it was 5 to 500 nM. With `Cc1c(OCCCN2CCCC2(C)C)cccc1-c1cccc2c1CC[C@@H]2Oc1cc(OCc2cc(C#N)cc(C#N)c2)c(CN[C@H]2CCC(=O)NC2)cc1Cl` the figure was less than 5 nM; with `N#Cc1cncc(COc2cc(O[C@H]3CCc4c(-c5cccc(OCCCN6CC7(C6)CC(F)(F)C7)c5Cl)cccc43)c(Cl)cc2CN[C@@H]2CCC[C@@H]2O)c1`, less than 5 nM; with `N#Cc1cncc(COc2cc(O[C@H]3CCc4c(-c5cccc(OCCCN6CC7(C6)CC(F)(F)C7)c5Cl)cccc43)c(Cl)cc2CN[C@@H]2CCC[C@H]2O)c1`, less than 5 nM. Turning to `Cc1c(OCCCN2CCC(F)CC2)cccc1-c1cccc2c1CC[C@@H]2Oc1cc(OCc2cncc(C#N)c2)c(CNC[C@@H]2CCC(=O)N2)cc1Cl`, the IC50 was less than 5 nM. Turning to `Cc1c(OCCCN2CCC(F)CC2)cccc1-c1cccc2c1CC[C@@H]2Oc1cc(OCc2cc(C#N)cc(C#N)c2)c(CN[C@@H]2CCC(=O)NC2)cc1Cl`, the IC50 was less than 5 nM. With `C[C@@H](O)[C@H](NCc1cc(Cl)c(O[C@H]2CCc3c(-c4cccc(OCCCN5CCC(C)(F)CC5)c4Cl)cccc32)cc1OCc1cncc(C#N)c1)C(=O)NS(C)(=O)=O` the figure was less than 5 nM. In the case of `CCOc1cc(O[C@H]2CCc3c(-c4cccc(OCCCN5CC[C@@H](O)C5)c4C)cccc32)c(Cl)cc1CN[C@@H](CO)C(=O)OC(C)C` it was 5 to 500 nM; in that of `Cc1c(OCCCN2CCC(F)CC2)cccc1-c1cccc2c1CC[C@@H]2Oc1cc(OCc2cncc(C#N)c2)c(CNCCS(=O)(=O)O)cc1Cl`, less than 5 nM; in that of `Cc1c(OCCCN2CCC(O)CC2)cccc1-c1cccc2c1CC[C@@H]2Oc1cc(OCc2cncc(C#N)c2)c(CN[C@@H]2CCCC[C@@H]2O)cc1Cl`, less than 5 nM. With `N#Cc1cncc(COc2cc(O[C@H]3CCc4c(-c5cccc(OCCCN6CC7(CC(F)C7)C6)c5Cl)cccc43)c(Cl)cc2CNC[C@@H]2CCC(=O)N2)c1` the figure was less than 5 nM; with `Cc1c(OCCCN2CCC[C@H](O)C2)cccc1-c1cccc2c1CC[C@@H]2Oc1cc(OCc2cncc(C#N)c2)c(CN[C@H](C(=O)O)[C@@H](C)O)cc1Cl`, less than 5 nM; with `Cc1c(OCCCN2CCC(F)CC2)cccc1-c1cccc2c1C[C@@H](F)[C@@H]2Oc1cc(OCc2cc(C#N)cc(C#N)c2)c(CN[C@H]2CCC(=O)NC2)cc1Cl`, 5 to 500 nM. With `Cc1c(OCCCN2C(C)(C)CCCC2(C)C)cccc1-c1cccc2c1CC[C@@H]2Oc1cc(OCc2cc(C#N)cc(C#N)c2)c(CN[C@H]2CCC(=O)NC2)cc1Cl`, the half-inhibitory concentration (IC50) fell in the range of 5 to 500 nM. With `COc1cc(O[C@H]2CCc3c(-c4cccc(OCCCN5CCC(F)CC5)c4Cl)cccc32)c(Cl)cc1CN[C@@H]1CCCC[C@@H]1O` the figure was 5 to 500 nM; with `C[C@@](CO)(NCc1cc(Cl)c(O[C@H]2CCc3c(-c4cccc(OCCCN5CC(O)C5)c4Cl)cc(F)cc32)cc1OCc1cncc(C#N)c1)C(=O)O`, less than 5 nM; with `CCOc1cc(O[C@H]2CCc3c(-c4cccc(OCCCN5CCC5(C)C)c4C)cccc32)c(Cl)cc1CNCCc1nnn[nH]1`, 5 to 500 nM. In turn, `CCOc1cc(O[C@H]2CCc3c(-c4cccc(OCCCN5CCC5(C)C)c4C)cccc32)c(Cl)cc1CNCCB(O)O` came in with an IC50 of 5 to 500 nM. With `N#Cc1cncc(COc2cc(O[C@H]3CCc4c(-c5cccc(OCCCN6CC(O)C6)c5Cl)cccc43)c(Cl)cc2CN2CC(O)C2)c1` the figure was less than 5 nM; with `N#Cc1cncc(COc2cc(O[C@H]3CCc4c(-c5cccc(OCCCN6CC7(CC(F)C7)C6)c5Cl)cccc43)c(Cl)cc2CN[C@H]2CC[C@@H]2O)c1`, less than 5 nM. With `Cc1c(OCCCN2CCC(F)CC2)cccc1-c1cccc2c1CC[C@@H]2Oc1cc(OCc2cc(C#N)cc(C#N)c2)c(CN[C@@H]2CCCNC2=O)cc1Cl` the figure was 5 to 500 nM; with `N#Cc1cncc(COc2cc(O[C@H]3CCc4c(-c5cccc(OCCCN6CC7(C6)CC(F)(F)C7)c5Cl)cccc43)c(Cl)cc2CN[C@@H]2CC[C@H]2O)c1`, less than 5 nM. `CCOc1cc(O[C@H]2CCc3c(-c4cccc(OCCCN5CCC5(C)C)c4C)cccc32)c(Cl)cc1CN1CCC1(C)C` had an IC50 of 5 to 500 nM. With `Cc1c(OCCCN2CCCCC2)cccc1-c1cccc2c1CC[C@@H]2Oc1cc(OCc2cncc(C#N)c2)c(CNC[C@H]2CCC(=O)N2)cc1Cl` the figure was less than 5 nM.

Consider `Cc1c(OCCCN2CCC(F)CC2)cccc1-c1cccc2c1CC[C@@H]2Oc1cc(OCc2cncc(C#N)c2)c(CN2CC(S(N)(=O)=O)C2)cc1Cl`, for which the IC50 was in the range of 5 to 500 nM.

Molecule `Cc1c(OCCCN2CCC(CO)CC2)cccc1-c1cccc2c1CC[C@@H]2Oc1cc(OCc2cncc(C#N)c2)c(CN[C@H](C(=O)O)[C@@H](C)O)cc1Cl` displayed an IC50 of less than 5 nM. `N#Cc1cncc(COc2cc(O[C@H]3CCc4c(-c5cccc(OCCCN6CCC(F)CC6)c5Cl)cccc43)c(Cl)cc2CN2CCNC(=O)C2)c1`: the IC50 lay within 5 to 500 nM. Turning to `Cc1c(OCCCN[C@@H]2CCCC[C@@H]2O)cccc1-c1cccc2c1CC[C@@H]2Oc1cc(OCc2cncc(C#N)c2)c(CN[C@H](C(=O)O)[C@@H](C)O)cc1Cl`, the concentration for half-maximal inhibition (IC50) is less than 5 nM.

`Cc1c(OCCCN2CCC(O)CC2)cccc1-c1cccc2c1CC[C@@H]2Oc1cc(OCc2cncc(C#N)c2)c(CN2CC(O)C2)cc1Cl` had a 50% inhibitory concentration (IC50) of less than 5 nM. With `N#Cc1cncc(COc2cc(O[C@H]3CCc4c(-c5cccc(OCCCN6CC7(CC(O)C7)C6)c5Cl)cccc43)c(Cl)cc2CN2CCCC3(C2)NC(=O)NC3=O)c1` (stereo partly shown) the figure was 5 to 500 nM; with `CC1(F)CCN(CCCOc2cccc(-c3cccc4c3CC[C@@H]4Oc3cc(OCc4cc(C#N)cc(C#N)c4)c(CN[C@H]4CCC(=O)NC4)cc3Cl)c2Cl)CC1`, 5 to 500 nM.

As for `CC(CO)(NCc1cc(Cl)c(O[C@H]2CCc3c(-c4cccc(OCCCN5CC6(CC(O)C6)C5)c4Cl)cccc32)cc1OCc1cncc(C#N)c1)C(=O)O` (stereo partly shown), the IC50 is less than 5 nM.

Molecule `Cc1c(OCCCN2CCC(C)(F)CC2)cccc1-c1cccc2c1CC[C@@H]2Oc1cc(OCc2cncc(C#N)c2)c(CNC[C@H]2CCC(=O)N2)cc1Cl` came in with a half-inhibitory concentration (IC50) of 5 to 500 nM. In the case of `Cc1c(OCCCN2CCC(O)CC2)cccc1-c1cccc2c1CC[C@@H]2Oc1cc(OCc2cncc(C#N)c2)c(CN[C@H](C(N)=O)[C@@H](C)O)cc1Cl` it was less than 5 nM; in that of `CCOc1cc(O[C@H]2CCc3c(-c4cccc(OCCCN5CCC5(C)C)c4C)cccc32)c(Cl)cc1CNCCCS(=O)(=O)O`, 5 to 500 nM; in that of `Cc1c(OCCCN2CCC(F)CC2)cccc1-c1cccc2c1CC[C@@H]2Oc1cc(OCc2cc(C#N)cc(C#N)c2)c(CNC[C@H]2CCC(=O)N2)cc1Cl`, 5 to 500 nM. For the molecule `Cc1c(OCCCN2CCCC2)cccc1-c1cccc2c1CC[C@@H]2Oc1cc(OCc2cc(C#N)cc(C#N)c2)c(CN[C@H]2CCC(=O)NC2)cc1Cl`, the IC50 is less than 5 nM.

Values taken from US10919852B2, “Immunomodulator compounds” (CHEMOCENTRYX, INC., priority 2017, dated 2021).
